Among the data in patent US20140088114A1, “FUSED BICYCLIC KINASE INHIBITORS” (OSI Pharmaceuticals ,LLC, priority 2011, published 2014) are IC50 values, retold here.

The target of one test is T1, c-MET (Homo sapiens, UniProt P08581).
T1 construct: endogenous in cells; host or cells: MKN45
The test is described as follows: MET cell mechanistic assay (MKN45), phosphorylated MET ELISA. The test is classed as cell-based. The note with it: MKN45 cell line, 4 hours incubation, inhibition of phosphorylated MET, at least duplicate experiments; read-out: MET mech IC50. On the procedure:
The cellular activity of the compounds of the present invention against c-MET may be determined by the following procedure. MKN45 cells were plated in Falcon 3072 96-well plates in growth media (RPMI, 10% FBS, 1% L-glutamine) at a density of 5000 cells/well and incubated at 37° C., 5% CO2 overnight. The following day, one-tenth volume of a 10× concentration of compounds was added to the wells in a 6-point dilution series. The dilutions series was composed of an initial 1:5 dilution in DMSO, followed by a 1:10 dilution in growth media, for a final DMSO concentration on cells of 0.5%. Control wells were treated with 0.5% DMSO. The typical range of dilution was 10 μM to 3 nM. Once compound was added to the cells, plates were incubated for 4 hours at 37° C., 5% CO2. Plates were then washed in PBS, and lysed in triton-based lysis buffer. Lysates were transferred to a precoated capture plate made by Biosource (Cat #KHO0281). The phosphorylated MET levels were measured by incubating with a rabbit polyclonal antibody against phosphorylated MET ([pYpYpY1230/1234/1235]) followed by an anti-rabbit antibody conjugated to HRP. Signal was measured on a Wallac Victor plate reader at 450 nm. The DMSO signal of the control wells was defined as 100% and the percent of inhibition of phosphorylated MET was expressed as percent of control. IC50 values were determined from the percent of control data using a standard four-parameter model.
The IC50 values of exemplary compounds of the present invention determined in a MET cell mechanistic assay using the MKN45 cell line according to the procedures described herein in at least duplicate experiments are abbreviated as follows and are shown in Table 1: A, IC50≦0.03 μM; B, 0.03 μM<IC50≦0.1 μM; C, 0.1 μM<IC50≦1 μM; D, 1 μM<IC50≦3 μM; ND, not determined. The Example # of Table 1 corresponds to the compound Example number as illustrated in the Examples section. […]
On the technique in general: An ELISA detects its analyte on a solid surface through an enzyme-linked reagent.

For another test, the target named is T2, Aurora B (Homo sapiens, UniProt Q96GD4).
T2 construct: HT-29 cells grown in complete growth media; endogenous in cells; host or cells: HT-29
The test is described as follows: Aurora B cell mechanistic assay (HT-29), phospho-Histone H3 (Ser10) ELISA. The test is classed as cell-based. The note with it: HT-29 cell line, inhibition of phospho-Histone H3 (Ser10), at least duplicate experiments (italicized if single); read-out: Aurora B mech IC50. The protocol:
The cellular activity of the compounds of the present invention against Aurora B may be determined by the following procedure. HT-29 cells grown in complete growth media (McCoy's 5A, 10% FCS, 1% L-glutamine) were plated into wells of a 96 well tissue culture plate (Falcon 3072) at a cell density of 4×10^4 cells/0.09 ml media/well. Cells were subsequently incubated overnight in a 5% CO2 humidified 37° C. incubator. The following day 10 μl of a 10× stock of test compound serially diluted in media was added to the cells and incubated for 1 h at 37° C. at which time Calyculin A (Cell Signaling #9902) was added at a concentration of 100 nM and cells incubated for an additional 30 minutes in a 5% CO2 humidified 37° C. incubator. Media was then aspirated and cells lysed using a Triton based lysis buffer. Lysates were transferred to a pre-coated anti-Histone H3 antibody coated plate supplied by Cell Signaling in their PathScan phospho-Histone H3 (Ser10) ELISA kit (#7155). After an overnight incubation with lysate the ELISA was continued following the manufacturer's instructions. Signal was measured on a Wallac Victor plate reader at 450 nm. DMSO control treated cells served as 100% signal and an Aurora B kinase inhibitor served as 100% inhibition. The percent inhibition of phospho-Histone H3 (Ser10) was expressed as % control. IC50 values were calculated from the percent control data using a standard four-parameter model.
The IC50 values of exemplary compounds of the present invention determined in a Aurora B cell mechanistic assay using the HT-29 cell line according to the procedures described herein in at least duplicate experiments are abbreviated as follows and are shown in Table 4: A, IC50≦0.03 μM; B, 0.03 μM<IC50≦0.1 μM; C, 0.1 μM<IC50≦1 μM; D, 1 μM<IC50≦3 μM; ND, not determined. If only data from single experiments are available, the abbreviations are italicized. The Example # of Table 4 corresponds to the compound example number as illustrated in the Examples section.

T2 sequence (Q96GD4 whole entry): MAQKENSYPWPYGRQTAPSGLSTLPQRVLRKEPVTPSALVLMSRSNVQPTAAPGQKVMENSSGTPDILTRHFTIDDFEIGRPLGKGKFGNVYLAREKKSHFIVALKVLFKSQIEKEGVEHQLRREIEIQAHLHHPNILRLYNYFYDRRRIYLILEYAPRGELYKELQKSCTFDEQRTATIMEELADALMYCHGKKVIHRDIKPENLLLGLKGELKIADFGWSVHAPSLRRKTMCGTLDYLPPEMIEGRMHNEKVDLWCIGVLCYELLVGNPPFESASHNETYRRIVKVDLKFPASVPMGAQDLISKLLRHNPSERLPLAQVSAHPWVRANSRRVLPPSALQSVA
T1 sequence (P08581 25-1390): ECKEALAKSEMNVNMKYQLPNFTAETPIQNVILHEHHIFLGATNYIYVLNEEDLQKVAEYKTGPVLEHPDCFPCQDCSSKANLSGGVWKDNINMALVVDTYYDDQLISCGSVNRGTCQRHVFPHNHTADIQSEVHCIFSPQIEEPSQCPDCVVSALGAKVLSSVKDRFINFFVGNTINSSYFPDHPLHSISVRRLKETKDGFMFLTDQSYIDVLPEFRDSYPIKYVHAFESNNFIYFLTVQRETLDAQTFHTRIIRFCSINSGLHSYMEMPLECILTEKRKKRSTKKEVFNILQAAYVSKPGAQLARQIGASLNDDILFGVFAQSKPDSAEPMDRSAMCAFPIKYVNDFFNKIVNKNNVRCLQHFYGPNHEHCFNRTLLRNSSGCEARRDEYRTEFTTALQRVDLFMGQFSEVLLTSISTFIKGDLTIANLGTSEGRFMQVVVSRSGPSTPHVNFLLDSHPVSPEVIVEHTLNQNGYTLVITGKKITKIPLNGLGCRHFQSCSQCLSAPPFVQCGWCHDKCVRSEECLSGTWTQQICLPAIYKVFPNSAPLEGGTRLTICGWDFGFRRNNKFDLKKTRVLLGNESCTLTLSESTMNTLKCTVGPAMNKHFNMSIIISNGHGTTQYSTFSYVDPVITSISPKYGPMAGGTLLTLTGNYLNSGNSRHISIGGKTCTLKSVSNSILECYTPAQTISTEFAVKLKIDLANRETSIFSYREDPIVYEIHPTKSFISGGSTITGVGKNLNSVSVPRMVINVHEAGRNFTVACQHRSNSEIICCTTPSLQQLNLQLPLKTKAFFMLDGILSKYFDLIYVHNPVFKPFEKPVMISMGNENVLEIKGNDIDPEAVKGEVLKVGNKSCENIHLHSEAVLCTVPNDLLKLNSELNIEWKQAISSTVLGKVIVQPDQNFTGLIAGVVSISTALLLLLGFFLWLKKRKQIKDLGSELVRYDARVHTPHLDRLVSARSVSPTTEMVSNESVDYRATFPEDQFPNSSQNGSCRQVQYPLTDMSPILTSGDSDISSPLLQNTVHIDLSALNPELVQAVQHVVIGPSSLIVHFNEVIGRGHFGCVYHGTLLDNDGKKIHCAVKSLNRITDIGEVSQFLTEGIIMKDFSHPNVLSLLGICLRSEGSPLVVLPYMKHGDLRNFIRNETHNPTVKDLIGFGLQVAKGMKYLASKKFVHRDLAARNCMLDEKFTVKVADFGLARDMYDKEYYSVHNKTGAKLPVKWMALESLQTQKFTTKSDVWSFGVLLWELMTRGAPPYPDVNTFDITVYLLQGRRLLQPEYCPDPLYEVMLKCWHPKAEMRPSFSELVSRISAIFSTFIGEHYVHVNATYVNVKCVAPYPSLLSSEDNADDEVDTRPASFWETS

The IC50 is the midpoint of a concentration-inhibition curve. In the case of `COc1ccc(F)c(Cl)c1[C@@H](CF)c1c[nH]c2ncc(-c3cnn([C@H]4CC[C@H](O)CC4)c3)cc12` [Example 3, trans-4-(4-{3-[(1S)-1-(2-chloro-3-fluoro-6-methoxyphenyl)-2-fluoroethyl]-1H-pyrrolo[2,3-b]pyridin-5-yl}-1H-pyrazol-1-yl)cyclohexanol], the half-inhibitory concentration (IC50) on c-MET and on Aurora B was no more than 30 nM throughout.

On to `O[C@H]1CC[C@H](n2cc(-c3cnc4[nH]cc([C@@H](CF)c5c(OC(F)F)ccc(F)c5Cl)c4c3)cn2)CC1` [Example 4, trans-4-[4-(3-{(1R)-1-[2-Chloro-6-(difluoromethoxy)-3-fluorophenyl]-2-fluoroethyl}-1H-pyrrolo[2,3-b]pyridin-5-yl)-1H-pyrazol-1-yl]cyclohexanol], for which the IC50 at c-MET and at Aurora B was 100 to 1000 nM throughout.

On to `Cn1cc(-c2cnc3[nH]cc(C(CF)c4c(Cl)ccc(F)c4Cl)c3c2)cn1` (stereo not shown) [Example 1, 3-[1-(2,6-Dichloro-3-fluorophenyl)-2-fluoroethyl]-5-(1-methyl-1H-pyrazol-4-yl)-1H-pyrrolo[2,3-b]pyridine], for which, at Aurora B, the IC50 fell in the range of 100 to 1000 nM.

Take `O[C@H]1CC[C@H](n2cc(-c3cnc4[nH]cc([C@H](CF)c5c(OC(F)F)ccc(F)c5Cl)c4c3)cn2)CC1` [Example 5, trans-4-[4-(3-{(1S)-1-[2-Chloro-6-(difluoromethoxy)-3-fluorophenyl]-2-fluoroethyl}-1H-pyrrolo[2,3-b]pyridin-5-yl)-1H-pyrazol-1-yl]cyclohexanol]: the IC50 at c-MET and on Aurora B was no more than 30 nM each time.
